Data reported in PMC11438102, “Modulation of cannabinoid receptor 2 alters neuroinflammation and reduces formation of alpha-synuclein aggregates in a rat model of nigral synucleinopathy” (Journal of Neuroinflammation, 2024).

Tested on: tyrosine hydroxylase, phosphorylated tyrosine hydroxylase, dopamine transporter, IBA1, GFAP in striatum
Test: Western immunoblot of dopaminergic and glial markers in striatal lysates
Assay type: in vivo
Conditions: rat low cohort, 6 mg/kg i.p. daily 7 weeks, vs vehicle
Description: Striatal tissue from successfully targeted low cohort rats was homogenized in ice-cold TriZOL lysed using the TissueLyser system. Homogenates were incubated with 20% chloroform and centrifuged at 13,523g for 15 min at 4°C. Protein pellets were washed in methanol twice and resuspended in 1% SDS and heated to 50°C. Total protein concentrations were measured using Pierce BCA Protein Assay Kit and equal amount of protein (10–20 µg) mixed with Laemmli sample buffer were loaded in 4–20% TGX precast gels (Biorad) for gel electrophoresis. Protein was transferred to a PVDF membrane (Biorad) using a Trans Blot Turbo Transfer System, the immunoblots were immediately fixed with 0.4% paraformaldehyde (PFA) for 30 min and stained for total protein using Revert 700 (Licor) for reliable normalization. Revert staining was captured and measured on the Licor Odyssey at 700 nm for 30 s.
Non-specific protein binding was blocked with 5% milk and 0.1% Tween-20 in TBS for 1 h at room temperature, and membranes incubated with primary antibodies overnight at 4°C. The blots were washed with 0.1%TBS-Tween-20, incubated with appropriate horseradish peroxidase-conjugated secondary antibodies (1:2000) at room temperature for 1 h and developed with SuperSignal West Femto Enhancer or Pico Peroxide solutions under a chemiluminescent detection imaging system (Licor Odyssey). The density of the band was quantified using StudioLite software. Relative expression levels were normalized to its own total protein and to vehicle average expression level.

O=C(c1ccccc1)c1cc(O)c(-c2cc(Cl)cc(Cl)c2)c(O)c1 [SMM-189]
myeloid marker IBA1 in striatum, western: no differences | phosphorylated tyrosine hydroxylase in striatal lysates: no significant changes | tyrosine hydroxylase in striatal lysates: no significant changes | astrocyte marker GFAP expression levels in striatum, western (p = 0.0746): trend to decrease | dopamine transporter in striatal lysates (trend to increase p = 0.051): no significant changes
